Key:
[1] = tested on: Arabidopsis thaliana plants; experiment: SOA1 phenotypic analysis of herbicide-treated Arabidopsis plants; format: in vivo
Arabidopsis thaliana [2] = experiment: MOA1 phenotypic profiling of Arabidopsis sprayed with unknown and commercial herbicides; format: in vivo
Arabidopsis thaliana [3] = experiment: MOA1 biochemical (metabolite) profiling by LC-MS and GC-MS of sprayed Arabidopsis; details: MOA1; 20 minutes and 1 hour after spraying
[4] = tested on: Saccharomyces cerevisiae wild type strain BY4743; experiment: AF1 metabolite analysis (GC-MS, LC-MS) of yeast treated with antifungal drugs; format: cell-based
[5] = tested on: Saccharomyces cerevisiae wild type strain BY4743; experiment: AF1 combined gene expression and metabolite data mapped to KEGG reactions and pathways; format: cell-based
Source text: In AF1, two different technologies were utilized: gene expression analysis (for examination of mRNA expression) and metabolite analysis. […] As noted previously, existing metabolic databases may be helpful in practicing the methods and systems of the present invention, but many databases include limitations that make their use in data analysis and pathway mapping less than straightforward. […] This caveat to KEGG makes it difficult to pinpoint the correct pathway when attempting to link a gene to a specific pathway. […] The pathway score indicates how meaningful the mapping is, or how likely it is to be correctly indicative of the pathway involved in the perturbation under examination. The method provides a pathway score based on perturbation levels of genes and/or compounds and the information content of each gene and/or compound in the pathway, i.e., a pathway score indicates the extent to which other pathways are mapped to a gene/compound. For example, imagine that two genes are perturbed in a particular experiment. One gene maps to only one pathway, giving a high degree of probability that the perturbed pathway is the one identified in the mapping. The second gene maps to three pathways. In the later example, there is only one-third the probability that the pathway identified in the mapping is the one perturbed. The present invention provides a method for calculating the pathway scores, so that more weight is given to a score of a gene or compound that maps to only one pathway than to a score of a gene or compound that maps to multiple pathways. […] Where n=the total number of genes in the pathway; ipath—count=the number of pathways containing a gene; and j=the number of genes in the pathway that are perturbed. Another factor to be considered when weighting a pathway score is the degree of perturbation. Degree of perturbation can be calculated, for example, based on a number of standard deviations from a norm, and included in an equation such as the one shown above, so that not only the number of pathways is taken into account, but also accounts for the amount of gene transcript or compound present as compared to a control. Compounds were also linked to pathways using the KEGG database. […] Of the 676 compounds under consideration, 77 were detected in the AF1 samples. […] The multiple mapping feature of KEGG makes it difficult to pinpoint the correct pathway when trying to link a compound to a specific pathway. […] A pathway score calculation is applied to the compounds to account for both information content (number of pathways a compound maps to) and perturbation level. The data were then combined to determine the number of reactions showing an enzyme and at least one compound perturbed, and to determine the number of pathways having at least one enzyme and one perturbed compound perturbed. The results of the analysis are represented in Tables 16 and 17, and were difficult to interpret, illustrating that the ability to draw conclusions from compound mapping to pathways is limited when absent additional data.

`Nc1nc[nH]n1` [Amitrole] was tested, and the “characteristic symptoms (phenotypic analysis)” value ([1]; herbicide-treated Arabidopsis) was “leaf bleaching and leaf enlargement”, the “Symptom Class” value ([1]; three-week-old Arabidopsis treated with herbicide, phenotypes shown in FIG. 12) was 2 and the “phenotype observed” value (Arabidopsis thaliana [2]) was “exhibited chlorosis and not true bleaching”.

`CCSC(=O)N(CC(C)C)CC(C)C` [Butylate] was tested, and the “phenotype observed” value (Arabidopsis thaliana [2]) was “neither showed a strong herbicidal phenotype” and the “commonly regulated (putative stress-related) metabolites” value (Arabidopsis thaliana [3]) was “neither butylate nor chlorpropham treatment resulted in many changes in these commonly regulated metabolites”.

For `CC(C)OC(=O)Nc1cccc(Cl)c1` [Chloropropham], the “phenotype observed” value (Arabidopsis thaliana [2]) was “neither showed a strong herbicidal phenotype” and the “commonly regulated (putative stress-related) metabolites” value (Arabidopsis thaliana [3]) was “neither butylate nor chlorpropham treatment resulted in many changes in these commonly regulated metabolites”.

With `CC(=O)N1CCN(c2ccc(OCC3COC(Cn4ccnc4)(c4ccc(Cl)cc4Cl)O3)cc2)CC1` (stereo not shown) [Ketoconazole] the “# Compounds perturbed” value ([4]; P < 0.1, yeast, 2×MIC, two hours) was 15 and the “Number of Reactions Having an Enzyme and at Least One Compound Perturbed” value [5] was 21.

For `CC[C@@H]([C@H](C)O)n1ncn(-c2ccc(N3CCN(c4ccc(OC[C@@H]5CO[C@@](Cn6cncn6)(c6ccc(F)cc6F)C5)cc4)CC3)cc2)c1=O` [Posaconazole], the “Fold Change of ornithine3” value ([4]; platform GC, p-Value 0.965157424) was 0.041, the “Fold Change of phosphoenolpyruvate” value ([4]; platform LC, p-Value 1) was 0 and the “Fold Change of NacetylDglucosamine” value ([4]; platform nLC, p-Value 1) was 0. The “Fold Change of NacetylLornithine” value ([4]; platform nLC, p-Value 1) was 0, the “Fold Change of orotic acid” value ([4]; platform nLC, p-Value 1) was 0 and the “Fold Change of phenylpyruvic acid” value ([4]; platform nLC, p-Value 1) was 0. The “Fold Change of phosphoenolpyruvate” value ([4]; platform nLC, p-Value 1) was 0, the “Fold Change of pinitol” value ([4]; platform nLC, p-Value 1) was 0 and the “Fold Change of retinoic acid” value ([4]; platform nLC, p-Value 1) was 0. The “Fold Change of salicylic/HObenzoic” value ([4]; platform nLC, p-Value 1) was 0, the “Fold Change of shikimic acid” value ([4]; platform nLC, p-Value 1) was 0 and the “Fold Change of sinapinic acid” value ([4]; platform nLC, p-Value 1) was 0. For the same compound, the “Fold Change of thymine” value ([4]; platform nLC, p-Value 1) was 0, the “Fold Change of urocanic acid” value ([4]; platform nLC, p-Value 1) was 0 and the “Fold Change of xanthosineDiH2O” value ([4]; platform nLC, p-Value 1) was 0. The “Fold Change of zeatin” value ([4]; platform nLC, p-Value 1) was 0, the “Fold Change of NacetylLglucosamine” value ([4]; platform pLC, p-Value 1) was 0 and the “Fold Change of NacetylLglutamate” value ([4]; platform pLC, p-Value 1) was 0. For the same compound, the “Fold Change of niacinamide” value ([4]; platform pLC, p-Value 1) was 0, the “Fold Change of nopaline” value ([4]; platform pLC, p-Value 1) was 0 and the “Fold Change of progesterone” value ([4]; platform pLC, p-Value 1) was 0. For the same compound, the “Fold Change of riboflavin” value ([4]; platform pLC, p-Value 1) was 0, the “Fold Change of sugar-phosphate” value ([4]; platform pLC, p-Value 1) was 0 and the “Fold Change of thiamine” value ([4]; platform pLC, p-Value 1) was 0. For the same compound, the “Fold Change of thymine” value ([4]; platform pLC, p-Value 1) was 0, the “Fold Change of tryptophan” value ([4]; platform pLC, p-Value 1) was 0 and the “Fold Change of uric acid” value ([4]; platform pLC, p-Value 1) was 0. The “Fold Change of urocanic acid” value ([4]; platform pLC, p-Value 1) was 0, the “Fold Change of xanthosine(diH2O)” value ([4]; platform pLC, p-Value 1) was 0 and the “Fold Change of zeatin” value ([4]; platform pLC, p-Value 1) was 0. The “Number of Reactions Having an Enzyme and at Least One Compound Perturbed” value [5] was 0.

Reference: patent publication US20040018500A1, “Methods and systems for analyzing complex biological systems” (priority 2001, published 2004)
